This passage reports Kd results from PMC8667935, “Synthesis and biological evaluation of celastrol derivatives as potent antitumor agents with STAT3 inhibition” (Journal of Enzyme Inhibition and Medicinal Chemistry, 2021).

pKd: −log10 of the molar value.

Experiment [1] deals with T1, STAT3 (Homo sapiens, UniProt P40763).
T1 construct: recombinant human STAT3 protein (rhSTAT3)
Description: SPR (Biacore T200, STAT3 amine-coupled to CM5 chip); positive control measured by the authors. It counts as binding. In general terms: Surface plasmon resonance follows binding to a sensor surface in real time, without labels.

Experiment [2] concerns the target T1, STAT3. In words: SPR (Biacore T200, STAT3 amine-coupled to CM5 chip). It counts as binding.

T1 sequence (P40763 2-770): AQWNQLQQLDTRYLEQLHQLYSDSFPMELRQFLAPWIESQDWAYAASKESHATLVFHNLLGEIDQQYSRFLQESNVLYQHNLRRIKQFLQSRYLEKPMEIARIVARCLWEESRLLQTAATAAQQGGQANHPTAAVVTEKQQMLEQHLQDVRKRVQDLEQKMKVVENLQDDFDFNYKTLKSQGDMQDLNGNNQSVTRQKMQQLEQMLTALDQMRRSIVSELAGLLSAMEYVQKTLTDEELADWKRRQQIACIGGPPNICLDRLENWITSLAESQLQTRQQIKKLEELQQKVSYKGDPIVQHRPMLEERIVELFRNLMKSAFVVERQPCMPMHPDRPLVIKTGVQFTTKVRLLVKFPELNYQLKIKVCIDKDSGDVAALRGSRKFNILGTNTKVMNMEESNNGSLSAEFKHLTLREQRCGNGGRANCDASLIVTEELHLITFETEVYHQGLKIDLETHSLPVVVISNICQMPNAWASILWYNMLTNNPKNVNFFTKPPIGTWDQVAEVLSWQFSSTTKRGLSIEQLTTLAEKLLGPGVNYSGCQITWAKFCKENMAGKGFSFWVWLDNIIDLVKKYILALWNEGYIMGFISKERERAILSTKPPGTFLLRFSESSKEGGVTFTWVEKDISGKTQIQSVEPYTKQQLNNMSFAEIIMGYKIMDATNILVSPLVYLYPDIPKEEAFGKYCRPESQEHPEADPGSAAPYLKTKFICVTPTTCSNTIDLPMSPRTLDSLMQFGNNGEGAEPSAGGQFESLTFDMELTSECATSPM

With `CC1=C(O)C(=O)C=C2C1=CC=C1[C@@]2(C)CC[C@@]2(C)[C@@H]3C[C@](C)(C(=O)O)CC[C@]3(C)CC[C@]12C` [CEL, Celastrol], the pKd (as a rule, the Kd on a negative log10 scale, so that one unit is a factor of ten) at STAT3 [1] was 4.22.
Molecule `CC1=C(O)C(=O)C=C2C1=CC=C1[C@@]2(C)CC[C@@]2(C)[C@@H]3C[C@](C)(C(=O)NCCc4cccs4)CC[C@]3(C)CC[C@]12C` [4m, 3-Hydroxy-9β,13α-dimethyl-2-oxo-24,25,26-trinoroleana-1(10),3,5,7-tetraen-29-oic acid 2–(2-thienyl) ethylamide] had a pKd on STAT3 [2] of 4.34.
